Assays:
Type in all cases: in vivo
[1] = test system: Blumeria graminis f. sp. tritici (Erysiphe graminis f. sp. tritici); assay: Blumeria graminis f. sp. tritici / wheat / leaf disc preventative (powdery mildew on wheat); conditions: foliar, wheat leaf segments cv. Kanzler, compared to untreated control leaf disks, read-out: disease control
From the text: Blumeria graminis f. sp. tritici (Erysiphe graminis f. sp. tritici)/Wheat/Leaf Disc Preventative (Powdery Mildew on Wheat) Wheat leaf segments cv. Kanzler were placed on agar in a multiwell plate (24-well format) and sprayed with the formulated test compound diluted in water. The leaf disks were inoculated by shaking powdery mildew infected plants above the test plates 1 day after application.

[2] = test system: Puccinia recondita f. sp. tritici; assay: Puccinia recondita f. sp. tritici / wheat / leaf disc preventative (brown rust); conditions: foliar, wheat leaf segments cv. Kanzler, compared to untreated control leaf disks, read-out: disease control
Procedure: Puccinia recondita f. sp. tritici/Wheat/Leaf Disc Preventative (Brown Rust) Wheat leaf segments cv. Kanzler were placed on agar in multiwell plates (24-well format) and sprayed with the formulated test compound diluted in water. The leaf disks were inoculated with a spore suspension of the fungus 1 day after application. The inoculated leaf segments were incubated at 19° C. and 75% rh under a light regime of 12 h light/12 h darkness in a climate cabinet and the activity of a compound was assessed as percent disease control compared to untreated when an appropriate level of disease damage appears in untreated check leaf segments (7-9 days after application).

[3] = test system: Puccinia recondita f. sp. tritici; assay: Puccinia recondita f. sp. tritici / wheat / leaf disc curative (brown rust); conditions: foliar, 24 h, wheat leaf segments cv. Kanzler, curative (applied 1 day after inoculation), compared to untreated control leaf disks, read-out: disease control
Procedure: Puccinia recondita f. sp. tritici/Wheat/Leaf Disc Curative (Brown Rust) Wheat leaf segments cv. Kanzler are placed on agar in multiwell plates (24-well format). The leaf segments are inoculated with a spore suspension of the fungus. Plates were stored in darkness at 19° C. and 75% rh. The formulated test compound diluted in water was applied 1 day after inoculation.

Phakopsora pachyrhizi = Phakopsora pachyrhizi / soybean / leaf disk preventative (soybean rust); conditions: foliar, soybean leaf disks, compared to untreated control leaf disks, read-out: disease control
Procedure: Phakopsora pachyrhizi/Soybean/Leaf Disk Preventative (Soybean Rust) Four-week old soybean plants are sprayed in a spray chamber with the formulated test compound diluted in water. Leaf disks are cut from treated plants and placed on agar into 24-well plates one day after application. Leaf disks are inoculated by spraying them with a spore suspension on their lower leaf surface. After an incubation period in a climate cabinet of 24-36 hours in darkness at 20° C. and 75% rh, the leaf disks are then kept at 20° C. with 12 h light/day and 75% rh. The percentage leaf disk area covered by disease is assessed when an appropriate level of disease appears on untreated check plants (12-14 days after application).

Measured: pest or weed control at 200 ppm

CCN(C)/C=N/c1cc(OC)c(C(O)(c2ccccc2)C(F)F)cc1C (stereo not drawn) [Compound E1.005]
≥ 80%: all assays above

CCN(C)/C=N/c1cc(OC)c(C(C)(O)c2ccccc2)cc1C (stereo not drawn) [Compound E1.007, N-ethyl-N′-[4-(1-hydroxy-1-phenyl-ethyl)-5-methoxy-2-methyl-phenyl]-N-methyl-formamidine]
≥ 80%: all assays above

COc1cc(/N=C/N(C)C2CC2)c(C)cc1C(O)(c1ccccc1)C(F)(F)F (stereo not drawn) [Compound E1.008]
≥ 80%: [2] | [3]

CCN(C)/C=N/c1cc(OC)c(C(O)(c2cc(Cl)cc(Cl)c2)C(F)(F)F)cc1C (stereo not drawn) [Compound E1.013]
≥ 80%: [1] | [2] | [3]

CCN(C)/C=N/c1cc(OC)c([C@](O)(c2ccccc2)C(F)(F)F)cc1C [Compound E1.014]
≥ 80%: all assays above

CCN(C)/C=N/c1cc(OC)c([C@@](O)(c2ccccc2)C(F)(F)F)cc1C [Compound E1.015]
≥ 80%: all assays above

CCN(C)/C=N/c1cc(OC)c(C(O)(c2ccccc2OC)C(F)(F)F)cc1C (stereo not drawn) [Compound E1.030]
≥ 80%: all assays above

CCN(C)/C=N/c1cc(OC)c(C(O)(c2ccc(SC(F)F)cc2)C(F)(F)F)cc1C (stereo not drawn) [Compound E1.038]
≥ 80%: [1] | [3]

CCN(C)/C=N/c1cc(OC)c(C(O)(c2cccc(SC)c2)C(F)(F)F)cc1C (stereo not drawn) [Compound E1.042]
≥ 80%: [1] | [3]

CCCCC(O)(c1cc(C)c(/N=C/N(C)C2CC2)cc1OC)C(F)(F)F (stereo not drawn) [Compound E1.049]
≥ 80%: all assays above

CCN(C)/C=N/c1cc(OC)c(C(O)(C2CCCC2)C(F)(F)F)cc1C (stereo not drawn) [Compound E1.050]
≥ 80%: all assays above

CCN(C)/C=N/c1cc(OC)c(C(O)(CC(C)C)C(F)(F)F)cc1C (stereo not drawn) [Compound E1.051]
≥ 80%: all assays above

CCCCC(O)(c1cc(C)c(/N=C/N(C)C(C)C)cc1OC)C(F)(F)F (stereo not drawn) [Compound E1.053]
≥ 80%: all assays above

CCN(C)/C=N/c1cc(OC)c(C(O)(C(C)C)C(F)(F)F)cc1C (stereo not drawn) [Compound E1.054, N-ethyl-N′-[4-[1-hydroxy-2-methyl-1-(trifluoromethyl)propyl]-5-methoxy-2-methyl-phenyl]-N-methyl-formamidine]
≥ 80%: all assays above

COc1cc(/N=C/N(C)C(C)C)c(C)cc1C(O)(C1CCCC1)C(F)(F)F (stereo not drawn) [Compound E1.060]
≥ 80%: [1] | [2] | [3]

CCN(C)/C=N/c1cc(OC)c(C(O)(C2CCC(C)(C)CC2)C(F)(F)F)cc1C (stereo not drawn) [Compound E1.061]
≥ 80%: all assays above

CCN(C)/C=N/c1cc(OC)c(C(O)(C2CCC(C)CC2)C(F)(F)F)cc1C (stereo not drawn) [Compound E1.062]
≥ 80%: all assays above

CCCCCC(O)(c1cc(C)c(/N=C/N(C)CC)cc1OC)C(F)(F)F (stereo not drawn) [Compound E1.065]
≥ 80%: all assays above

CCN(C)/C=N/c1cc(OC)c(C(O)(CC(C)(C)C)C(F)(F)F)cc1C (stereo not drawn) [Compound E1.066]
≥ 80%: all assays above

CCN(C)/C=N/c1cc(OC)c(C(O)(CCC(C)C)C(F)(F)F)cc1C (stereo not drawn) [Compound E1.068]
≥ 80%: all assays above

CCN(C)/C=N/c1cc(OC)c(C(O)(C2=CCCC2)C(F)(F)F)cc1C (stereo not drawn) [Compound E1.079]
≥ 80%: [1] | [2] | [3]

CCN(C)/C=N/c1cc(OC)c(C(O)(C2=CCCCC2)C(F)(F)F)cc1C (stereo not drawn) [Compound E1.080]
≥ 80%: [1] | [2] | [3]

CCN(C)/C=N/c1cc(OC)c(C(O)(Cc2ccc(F)cc2)C(F)(F)F)cc1C (stereo not drawn) [Compound E1.091]
≥ 80%: [1] | [3] | Phakopsora pachyrhizi

CCN(C)/C=N/c1cc(OC)c(C(O)(Cn2cc3ccccc3n2)C(F)(F)F)cc1C (stereo not drawn) [Compound E1.092]
≥ 80%: [1] | [2] | [3]

CCN(C)/C=N/c1cc(OC)c(C(O)(Cn2nc(C)c(Cl)c2C)C(F)(F)F)cc1C (stereo not drawn) [Compound E1.096]
≥ 80%: Phakopsora pachyrhizi

CCN(C)/C=N/c1cc(OC)c(C(O)(Cn2cncn2)C(F)(F)F)cc1C (stereo not drawn) [Compound E1.098]
≥ 80%: [1] | [2] | [3]

CCN(C)/C=N/c1cc(OC)c(C(O)(Cc2cccc(F)n2)C(F)(F)F)cc1C (stereo not drawn) [Compound E1.102]
≥ 80%: [1] | [3] | Phakopsora pachyrhizi

CCN(C)/C=N/c1cc(OC)c(C(O)(c2cnn(-c3ccccc3)c2)C(F)(F)F)cc1C (stereo not drawn) [Compound E1.109]
≥ 80%: [1] | [2] | [3]

CCN(C)/C=N/c1cc(OC)c(C(O)(c2cnn(C(C)C)c2)C(F)(F)F)cc1C (stereo not drawn) [Compound E1.110]
≥ 80%: [2] | [3]

CCN(C)/C=N/c1cc(OC)c(C(O)(c2cnn(CC)c2)C(F)(F)F)cc1C (stereo not drawn) [Compound E1.111]
≥ 80%: [2] | [3] | Phakopsora pachyrhizi

CCCCC(O)(c1cc(C)c(/N=C/N(C)CC)cc1SC)C(F)(F)F (stereo not drawn) [Compound E1.114]
≥ 80%: [1] | [3] | Phakopsora pachyrhizi

— patent publication US10723695B2, “Microbiocidal phenylamidine derivatives” (SYNGENTA PARTICIPATIONS AG, priority 2015, dated 2020)
